This note sets out measurements from article PMC10003360, “Antiviral Effect of Ginsenosides rk1 against Influenza a Virus Infection by Targeting the Hemagglutinin 1-Mediated Virus Attachment” (International Journal of Molecular Sciences, 2023).

What is called Kd is a measure of binding affinity in units of concentration. A higher Kd goes with a looser complex.

This experiment has as its target T1, HA1 (Influenza A virus (A/Puerto Rico/8/1934(H1N1)), UniProt P03452).
T1 construct: gene HA; HA1 subunit alone, cut from precursor HA0; purchased from Sino Biological; immobilised on sensor chip
In words: biochemical. The experiment is classed as binding.

T1 sequence (P03452 18-342 limits assumed): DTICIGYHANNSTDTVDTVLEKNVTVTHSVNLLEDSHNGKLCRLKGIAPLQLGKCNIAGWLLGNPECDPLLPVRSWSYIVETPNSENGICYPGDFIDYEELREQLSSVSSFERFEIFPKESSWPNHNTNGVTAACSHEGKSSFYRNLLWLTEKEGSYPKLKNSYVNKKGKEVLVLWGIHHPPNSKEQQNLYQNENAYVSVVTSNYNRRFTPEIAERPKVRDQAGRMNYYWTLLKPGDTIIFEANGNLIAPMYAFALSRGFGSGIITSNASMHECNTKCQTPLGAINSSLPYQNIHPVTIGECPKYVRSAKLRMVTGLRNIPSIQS

For `C=C(CCC=C(C)C)[C@H]1CC[C@]2(C)[C@@H]1[C@H](O)C[C@@H]1[C@@]3(C)CC[C@H](O[C@@H]4O[C@H](CO)[C@@H](O)[C@H](O)[C@H]4O[C@@H]4O[C@H](CO)[C@@H](O)[C@H](O)[C@H]4O)C(C)(C)[C@@H]3CC[C@]12C` [G-rk1, ginsenoside rk1], the Kd was 0.0933 µM.
